The term solubility denotes how much of the substance goes into solution per volume.

Consider 2 compounds from patent US12286405B2, “Scalable synthesis of dual-target inhibitor of cannabinoid-1 receptor and inducible nitric oxide synthase” (THE UNITED STATES OF AMERICA, AS REPRESENTED BY THE …, priority 2019, dated 2025).

The nature of data set [1]: solubility of rac-1 in organic solvent (dichloromethane). The format is physicochemical. Conditions: organic solvent or mixture. An excerpt:
To overcome this obstacle, the present inventors discovered an enantioselective approach to (S,1E,NE)-N-(1-aminoethylidene)-3-(4-chlorophenyl)-4-phenyl-N′-((4-(trifluoromethyl)phenyl)sulfonyl)-4,5-dihydro-1H-pyrazole-1-carboximidamide (S)-1 in high optical purity.

The target in data set [2] is CB1R (Homo sapiens, UniProt P21554). Conditions: in vivo; mediated by the CB1R antagonism; cited from earlier work.
Data set [3] deals with animal models of fibrosis. The settings on record: mediated by iNOS inhibition and CB1R antagonism; cited from earlier work.

Each structure is given as a SMILES string. In brackets after ≈: the same amount, converted by molar mass.

Chain of CB1R (P21554 whole entry): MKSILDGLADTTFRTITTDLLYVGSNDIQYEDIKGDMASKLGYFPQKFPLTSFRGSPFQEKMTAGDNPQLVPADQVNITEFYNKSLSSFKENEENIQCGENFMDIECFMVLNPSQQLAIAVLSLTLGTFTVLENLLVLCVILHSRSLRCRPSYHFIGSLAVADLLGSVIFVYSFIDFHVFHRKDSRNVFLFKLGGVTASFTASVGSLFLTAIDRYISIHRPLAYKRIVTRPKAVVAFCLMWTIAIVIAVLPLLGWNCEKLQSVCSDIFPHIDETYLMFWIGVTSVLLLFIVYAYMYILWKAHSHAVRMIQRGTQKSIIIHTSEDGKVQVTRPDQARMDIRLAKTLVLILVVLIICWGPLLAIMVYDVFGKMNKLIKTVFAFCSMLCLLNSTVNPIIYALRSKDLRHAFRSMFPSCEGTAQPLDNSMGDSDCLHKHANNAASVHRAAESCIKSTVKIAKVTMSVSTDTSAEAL

As for `C/C(N)=N\C(=N/S(=O)(=O)c1ccc(C(F)(F)F)cc1)N1CC(c2ccccc2)C(c2ccc(Cl)cc2)=N1` (racemic) [rac-1, (1E,NE)-N-(1-aminoethylidene)-3-(4-chlorophenyl)-4-phenyl-N′-((4-(trifluoromethyl)phenyl)sulfonyl)-4,5-dihydro-1H-pyrazole-1-carboximidamide], the solubility in data set [1] is around 1000 µg/mL (≈ 1820 µM).

With `C/C(N)=N\C(=N\S(=O)(=O)c1ccc(C(F)(F)F)cc1)N1C[C@H](c2ccccc2)C(c2ccc(Cl)cc2)=N1` [(S)-1, (S,1E,NE)-N-(1-aminoethylidene)-3-(4-chlorophenyl)-4-phenyl-N′-((4-(trifluoromethyl)phenyl)sulfonyl)-4,5-dihydro-1H-pyrazole-1-carboximidamide], in data set [2], the food intake result is “reduction of food intake”. Besides, in data set [3], the antifibrotic effect entry is reported as “antifibrotic effect”.
